Assays:
Format in all cases: cell-based
Pyricularia oryzae [1] = test: microbe, parasite or virus in culture; conditions: 168 h, read-out: Observed activity (%)
Botrytis cinerea = test: Use Example No. 6: activity against gray mold Botrytis cinerea in the microtiter test (Botrci); conditions: 168 h, day 7 post-inoculation, efficacy as % of untreated control, read-out: Observed activity (%)
Pyricularia oryzae [2] = test: microbe, parasite or virus in culture; conditions: 168 h, read-out: Observed activity (%); remark: listed apart in the source

`N#Cc1nn(-c2c(Cl)cc(C(F)(F)F)cc2Cl)c(N)c1[S+]([O-])C(F)(F)F` (stereo not drawn) [fipronil] gave an inhibition at 2 ppm (Pyricularia oryzae [1]) of 5%.

`COC(=O)N(OC)c1ccccc1COc1ccn(-c2ccc(Cl)cc2)n1` [pyraclostrobin] was tested, and the inhibition at 0.016 ppm (Botrytis cinerea) was 4% and the inhibition at 0.001 ppm (Pyricularia oryzae [2]) was 31%.
